“And” between values parts separate entries of the source, which are not always exact repeats. Equal entries are not always repeated.
Columns and labels:
Experiment in all cases: cells
HEL = format: functional, cell-based, Homo sapiens
Description: SANGER: Inhibition of human HEL cell growth in a cell viability assay.

NCI-H441 = format: functional, cell-based; details: Homo sapiens
Description: SANGER: Inhibition of human NCI-H441 cell growth in a cell viability assay.

KYSE-410 = format: functional, cell-based, Homo sapiens
Description: SANGER: Inhibition of human KYSE-410 cell growth in a cell viability assay.

OVCAR-4 = format: functional, cell-based, Homo sapiens
Description: SANGER: Inhibition of human OVCAR-4 cell growth in a cell viability assay.

A101D = format: functional, cell-based, Homo sapiens
Description: SANGER: Inhibition of human A101D cell growth in a cell viability assay.

KARPAS-45 = format: functional, cell-based; details: Homo sapiens
Description: SANGER: Inhibition of human KARPAS-45 cell growth in a cell viability assay.

MN-60 = format: functional, cell-based; details: Homo sapiens
Description: SANGER: Inhibition of human MN-60 cell growth in a cell viability assay.

EFM-19 = format: functional, cell-based, Homo sapiens
Description: SANGER: Inhibition of human EFM-19 cell growth in a cell viability assay.

8505C = format: functional, cell-based, Homo sapiens
Description: SANGER: Inhibition of human 8505C cell growth in a cell viability assay.

SNU-5 = format: functional, cell-based; details: Homo sapiens
Description: SANGER: Inhibition of human NCI-SNU-5 cell growth in a cell viability assay.

HT-144 = format: functional, cell-based, Homo sapiens
Description: SANGER: Inhibition of human HT-144 cell growth in a cell viability assay.

MFM-223 = format: functional, cell-based, Homo sapiens
Description: SANGER: Inhibition of human MFM-223 cell growth in a cell viability assay.

SW1417 = format: functional, cell-based, Homo sapiens
Description: SANGER: Inhibition of human SW1417 cell growth in a cell viability assay.

MFE-280 = format: functional, cell-based, Homo sapiens
Description: SANGER: Inhibition of human MFE-280 cell growth in a cell viability assay.

SW837 = format: functional, cell-based, Homo sapiens
Description: SANGER: Inhibition of human SW837 cell growth in a cell viability assay.

ES6 = format: functional, cell-based, Homo sapiens
Description: SANGER: Inhibition of human ES6 cell growth in a cell viability assay.

ACHN = format: functional, cell-based, Homo sapiens
Description: SANGER: Inhibition of human ACHN cell growth in a cell viability assay.

JVM-2 = format: functional, cell-based; details: Homo sapiens
Description: SANGER: Inhibition of human JVM-2 cell growth in a cell viability assay.

KYSE-150 cell line = format: functional, cell-based, Homo sapiens
Description: SANGER: Inhibition of human KYSE-150 cell growth in a cell viability assay.

NCI-H720 = format: functional, cell-based; details: Homo sapiens
Description: SANGER: Inhibition of human NCI-H720 cell growth in a cell viability assay.

NCI-H446 = format: functional, cell-based; details: Homo sapiens
Description: SANGER: Inhibition of human NCI-H446 cell growth in a cell viability assay.

SK-LU-1 = format: functional, cell-based, Homo sapiens
Description: SANGER: Inhibition of human SK-LU-1 cell growth in a cell viability assay.

U2OS = format: functional, cell-based, Homo sapiens, U-2-OS
Description: SANGER: Inhibition of human U-2-OS cell growth in a cell viability assay.

PFSK-1 = format: functional, cell-based, Homo sapiens
Description: SANGER: Inhibition of human PFSK-1 cell growth in a cell viability assay.

SAOS-2 = format: functional, cell-based, Homo sapiens
Description: SANGER: Inhibition of human Saos-2 cell growth in a cell viability assay.

MZ1-PC = format: functional, cell-based, Homo sapiens
Description: SANGER: Inhibition of human MZ1-PC cell growth in a cell viability assay.

HOP-92 = format: functional, cell-based, Homo sapiens
Description: SANGER: Inhibition of human HOP-92 cell growth in a cell viability assay.

ES4 = format: functional, cell-based, Homo sapiens
Description: SANGER: Inhibition of human ES4 cell growth in a cell viability assay.

HT = format: functional, cell-based; details: Homo sapiens
Description: SANGER: Inhibition of human HT cell growth in a cell viability assay.

BT-20 = format: functional, cell-based, Homo sapiens
Description: SANGER: Inhibition of human BT-20 cell growth in a cell viability assay.

SW626 = format: functional, cell-based, Homo sapiens
Description: SANGER: Inhibition of human SW626 cell growth in a cell viability assay.

IA-LM = format: functional, cell-based, Homo sapiens
Description: SANGER: Inhibition of human IA-LM cell growth in a cell viability assay.

NCI-H1623 = format: functional, cell-based, Homo sapiens
Description: SANGER: Inhibition of human NCI-H1623 cell growth in a cell viability assay.

GI-1 = format: functional, cell-based, Homo sapiens
Description: SANGER: Inhibition of human GI-1 cell growth in a cell viability assay.

NCI-H1650 = format: functional, cell-based, Homo sapiens
Description: SANGER: Inhibition of human NCI-H1650 cell growth in a cell viability assay.

LCLC-97TM1 = format: functional, cell-based, Homo sapiens
Description: SANGER: Inhibition of human LCLC-97TM1 cell growth in a cell viability assay.

NCI-H2342 = format: functional, cell-based; details: Homo sapiens
Description: SANGER: Inhibition of human NCI-H2342 cell growth in a cell viability assay.

NMC-G1 = format: functional, cell-based, Homo sapiens
Description: SANGER: Inhibition of human NMC-G1 cell growth in a cell viability assay.

CTV-1 = format: functional, cell-based; details: Homo sapiens
Description: SANGER: Inhibition of human CTV-1 cell growth in a cell viability assay.

HSC-2 = format: functional, cell-based, Homo sapiens
Description: SANGER: Inhibition of human HSC-2 cell growth in a cell viability assay.

LS-411N = format: functional, cell-based, Homo sapiens
NCI-H1648 = format: functional, cell-based, Homo sapiens
Description: SANGER: Inhibition of human NCI-H1648 cell growth in a cell viability assay.

8-MG-BA = format: functional, cell-based, Homo sapiens
Description: SANGER: Inhibition of human 8-MG-BA cell growth in a cell viability assay.

DOHH-2 = format: functional, cell-based; details: Homo sapiens
Description: SANGER: Inhibition of human DOHH-2 cell growth in a cell viability assay.

JEG-3 = format: functional, cell-based, Homo sapiens
Description: SANGER: Inhibition of human JEG-3 cell growth in a cell viability assay.

LB2518-MEL = format: functional, cell-based, Homo sapiens
Description: SANGER: Inhibition of human LB2518-MEL cell growth in a cell viability assay.

SBC-1 = format: functional, cell-based; details: Homo sapiens
Description: SANGER: Inhibition of human SBC-1 cell growth in a cell viability assay.

DB = format: functional, cell-based; details: Homo sapiens
Description: SANGER: Inhibition of human DB cell growth in a cell viability assay.

SK-MEL-30 = format: functional, cell-based; details: Homo sapiens
Description: SANGER: Inhibition of human SK-MEL-30 cell growth in a cell viability assay.

SNU-387 = format: functional, cell-based, Homo sapiens
Description: SANGER: Inhibition of human SNU-387 cell growth in a cell viability assay.

HCC1569 = format: functional, cell-based, Homo sapiens
Description: SANGER: Inhibition of human HCC1569 cell growth in a cell viability assay.

VM-CUB-1 = format: functional, cell-based; details: Homo sapiens
Description: SANGER: Inhibition of human VM-CUB-1 cell growth in a cell viability assay.

## Cc1cc([C@@H](C)Nc2ccccc2C(=O)O)c2nc(N3CCOCC3)cc(=O)n2c1 [AZD-6482]
HEL; hel
  IC50: > 5120 nM
NCI-H441
  IC50: > 5120 nM
KYSE-410; kyse-410
  IC50: > 5120 nM
OVCAR-4; ovcar-4
  IC50: > 5120 nM
A101D; a101d
  IC50: 3210 nM and > 5120 nM
KARPAS-45
  IC50: 3300 nM
MN-60
  IC50: > 5120 nM
EFM-19; efm-19
  IC50: > 5120 nM
8505C; 8505c
  IC50: > 5120 nM
SNU-5
  IC50: > 5120 nM
HT-144; Homo sapiens, HT-144
  IC50: > 5120 nM
HT-144; ht-144
  IC50: > 5120 nM
MFM-223; mfm-223
  IC50: > 5120 nM
SW1417; sw1417
  IC50: > 5120 nM
MFE-280; mfe-280
  IC50: > 5120 nM
SW837; sw837
  IC50: > 5120 nM
ES6; Homo sapiens, ES6
  IC50: > 5120 nM
ES6; es6
  IC50: > 5120 nM
ACHN; achn
  IC50: > 5120 nM and 2240 nM
JVM-2
  IC50: > 5120 nM
KYSE-150 cell line; kyse-150
  IC50: > 5120 nM
NCI-H720
  IC50: > 5120 nM
NCI-H446
  IC50: > 5120 nM
SK-LU-1; sk-lu-1
  IC50: > 5120 nM
U2OS; u-2-os
  IC50: > 5120 nM and 4600 nM
PFSK-1; pfsk-1
  IC50: > 5120 nM
SAOS-2; Homo sapiens, SAOS-2
  IC50: > 5120 nM
SAOS-2; saos-2
  IC50: > 5120 nM
MZ1-PC; mz1-pc
  IC50: > 5120 nM
HOP-92; hop-92
  IC50: > 5120 nM and 4580 nM
ES4; es4
  IC50: > 5120 nM
HT
  IC50: 4020 nM
BT-20; bt-20
  IC50: 592 nM and 1790 nM
SW626; sw626
  IC50: > 5120 nM
IA-LM; ia-lm
  IC50: > 5120 nM
NCI-H1623; nci-h1623
  IC50: > 5120 nM and 3130 nM
GI-1; gi-1
  IC50: 1320 nM and > 5120 nM
NCI-H1650; nci-h1650
  IC50: > 5120 nM
LCLC-97TM1; Homo sapiens, LCLC-97TM1
  IC50: > 5120 nM
LCLC-97TM1; lclc-97tm1
  IC50: > 5120 nM
NCI-H2342
  IC50: 843 nM
NMC-G1; Homo sapiens, NMC-G1
  IC50: > 5120 nM
NMC-G1; nmc-g1
  IC50: > 5120 nM
CTV-1
  IC50: > 5120 nM
HSC-2; Homo sapiens, HSC-2
  IC50: 1760 nM
HSC-2; hsc-2
  IC50: 1140 nM
LS-411N; Homo sapiens, LS-411N
  IC50: > 5120 nM
LS-411N; ls-411n
  IC50: > 5120 nM
NCI-H1648; Homo sapiens, NCI-H1648
  IC50: > 5120 nM
NCI-H1648; nci-h1648
  IC50: > 5120 nM
8-MG-BA; 8-mg-ba
  IC50: > 5120 nM
DOHH-2
  IC50: 4650 nM
JEG-3; jeg-3
  IC50: > 5120 nM
LB2518-MEL; Homo sapiens, LB2518-MEL
  IC50: > 5120 nM
LB2518-MEL; lb2518-mel
  IC50: > 5120 nM
SBC-1
  IC50: > 5120 nM
DB
  IC50: > 5120 nM
SK-MEL-30
  IC50: > 5120 nM
SNU-387; snu-387
  IC50: > 5120 nM
HCC1569; hcc1569
  IC50: 3290 nM and > 5120 nM
VM-CUB-1
  IC50: > 5120 nM

## Nc1ccn([C@@H]2O[C@H](CO)[C@@H](O)[C@@H]2O)c(=O)n1 [CYTARABINE]
HEL; Homo sapiens, HEL
  IC50: 20.5 nM
NCI-H441
  IC50: > 2000 nM
KYSE-410; Homo sapiens, KYSE-410
  IC50: > 2000 nM
OVCAR-4; Homo sapiens, OVCAR-4
  IC50: > 2000 nM
A101D; Homo sapiens, A101D
  IC50: > 2000 nM
KARPAS-45
  IC50: > 2000 nM
MN-60
  IC50: 935 nM
EFM-19; Homo sapiens, EFM-19
  IC50: > 2000 nM
8505C; Homo sapiens, 8505C
  IC50: > 2000 nM
SNU-5
  IC50: > 2000 nM
HT-144; Homo sapiens, HT-144
  IC50: 1230 nM
MFM-223; Homo sapiens, MFM-223
  IC50: > 2000 nM
SW1417; Homo sapiens, SW1417
  IC50: > 2000 nM
MFE-280; Homo sapiens, MFE-280
  IC50: > 2000 nM
SW837; Homo sapiens, SW837
  IC50: > 2000 nM
ES6; Homo sapiens, ES6
  IC50: 721 nM
ACHN; Homo sapiens, ACHN
  IC50: 370 nM
JVM-2
  IC50: > 2000 nM
KYSE-150 cell line; Homo sapiens, KYSE-150
  IC50: > 2000 nM
NCI-H720
  IC50: > 2000 nM
NCI-H446
  IC50: > 2000 nM
SK-LU-1; Homo sapiens, SK-LU-1
  IC50: 1310 nM
U2OS; Homo sapiens, U2OS
  IC50: 344 nM
PFSK-1; Homo sapiens, PFSK-1
  IC50: > 2000 nM
SAOS-2; Homo sapiens, SAOS-2
  IC50: 682 nM
MZ1-PC; Homo sapiens, MZ1-PC
  IC50: 1800 nM
HOP-92; Homo sapiens, HOP-92
  IC50: 354 nM
ES4; Homo sapiens, ES4
  IC50: 214 nM
HT
  IC50: > 2000 nM
BT-20; Homo sapiens, BT-20
  IC50: > 2000 nM
SW626; Homo sapiens, SW626
  IC50: > 2000 nM
IA-LM; Homo sapiens, IA-LM
  IC50: > 2000 nM
NCI-H1623; Homo sapiens, NCI-H1623
  IC50: 536 nM
GI-1; Homo sapiens, GI-1
  IC50: 339 nM
NCI-H1650; Homo sapiens, NCI-H1650
  IC50: > 2000 nM
LCLC-97TM1; Homo sapiens, LCLC-97TM1
  IC50: 477 nM
NCI-H2342
  IC50: > 2000 nM
NMC-G1; Homo sapiens, NMC-G1
  IC50: 1960 nM
CTV-1
  IC50: 84.7 nM
HSC-2; Homo sapiens, HSC-2
  IC50: 1460 nM
LS-411N; Homo sapiens, LS-411N
  IC50: 695 nM
NCI-H1648; Homo sapiens, NCI-H1648
  IC50: > 2000 nM
8-MG-BA; Homo sapiens, 8-MG-BA
  IC50: 341 nM
DOHH-2
  IC50: 1380 nM
JEG-3; Homo sapiens, JEG-3
  IC50: 431 nM
LB2518-MEL; Homo sapiens, LB2518-MEL
  IC50: > 2000 nM
SBC-1
  IC50: > 2000 nM
DB
  IC50: 246 nM
SK-MEL-30
  IC50: > 2000 nM
SNU-387; Homo sapiens, SNU-387
  IC50: 289 nM
HCC1569; Homo sapiens, HCC1569
  IC50: > 2000 nM
VM-CUB-1
  IC50: 533 nM

Source: ChEMBL document CHEMBL1201861, “Genomics of Drug Sensitity in Cancer screening data, Wellcome Trust Sanger Institute”
